Results reported in PubChem BioAssay (NCI).
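Assay format: 96-well plates, 48-hour exposure. Here, GI50 denotes the concentration required for 50% inhibition of growth. TGI: concentration producing complete growth inhibition.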

Columns and labels:
Assay in all cases: DTP human tumour cell line panel, 48 h
HOP-62 NSCLC = tested on: HOP-62 NSCLC
NCI-H460 lung = tested on: NCI-H460 lung
SF-539 CNS = tested on: SF-539 CNS
MCF7 breast = tested on: MCF7 breast
M14 melanoma = tested on: M14 melanoma
HS 578T breast = tested on: HS 578T breast
OVCAR-3 ovarian = tested on: OVCAR-3 ovarian
HCT-116 colon = tested on: HCT-116 colon
ACHN renal = tested on: ACHN renal
UACC-257 melanoma = tested on: UACC-257 melanoma
UACC-62 melanoma = tested on: UACC-62 melanoma
A549 NSCLC = tested on: A549 NSCLC
HCT-15 colon = tested on: HCT-15 colon
MDA-MB-231 breast = tested on: MDA-MB-231 breast
SN12C renal = tested on: SN12C renal
IGROV1 ovarian = tested on: IGROV1 ovarian
SNB-19 CNS = tested on: SNB-19 CNS
MDA-MB-435 = tested on: MDA-MB-435
LOX IMVI melanoma = tested on: LOX IMVI melanoma
MOLT-4 leukemia = tested on: MOLT-4 leukemia
HL-60(TB) leukemia = tested on: HL-60(TB) leukemia
K-562 leukemia = tested on: K-562 leukemia
786-0 renal = tested on: 786-0 renal
A498 renal = tested on: A498 renal
SR leukemia = tested on: SR leukemia
SK-MEL-5 melanoma = tested on: SK-MEL-5 melanoma
SK-MEL-28 melanoma = tested on: SK-MEL-28 melanoma
NCI-H226 lung = tested on: NCI-H226 lung
SK-OV-3 ovarian = tested on: SK-OV-3 ovarian
DU-145 prostate = tested on: DU-145 prostate
TK-10 renal = tested on: TK-10 renal
U251 CNS = tested on: U251 CNS
SF-268 CNS = tested on: SF-268 CNS
OVCAR-4 ovarian = tested on: OVCAR-4 ovarian
UO-31 renal = tested on: UO-31 renal
SF-295 CNS = tested on: SF-295 CNS
SNB-75 CNS = tested on: SNB-75 CNS
RXF 393 renal = tested on: RXF 393 renal
CAKI-1 renal = tested on: CAKI-1 renal
OVCAR-5 ovarian = tested on: OVCAR-5 ovarian
NCI-H23 lung = tested on: NCI-H23 lung
HT29 colon = tested on: HT29 colon
SW-620 colon = tested on: SW-620 colon
MALME-3M melanoma = tested on: MALME-3M melanoma
HCC-2998 colon = tested on: HCC-2998 colon
NCI-H522 lung = tested on: NCI-H522 lung
KM12 colon = tested on: KM12 colon
T-47D breast = tested on: T-47D breast
EKVX NSCLC = tested on: EKVX NSCLC
SK-MEL-2 melanoma = tested on: SK-MEL-2 melanoma
OVCAR-8 ovarian = tested on: OVCAR-8 ovarian
RPMI-8226 leukemia = tested on: RPMI-8226 leukemia
COLO 205 colon = tested on: COLO 205 colon
NCI/ADR-RES ovarian = tested on: NCI/ADR-RES ovarian
HOP-92 NSCLC = tested on: HOP-92 NSCLC
CCRF-CEM leukemia = tested on: CCRF-CEM leukemia
PC-3 prostate = tested on: PC-3 prostate
MDA-N = tested on: MDA-N
BT-549 breast = tested on: BT-549 breast

COc1cc(Cn2c(-c3ccccc3)c(Cl)c3c2-c2oncc2CC3)cc(OC)c1
GI50 (HOP-62 NSCLC): 44 µM
TGI (HOP-62 NSCLC): > 100 µM
GI50 (NCI-H460 lung): 4.91 µM
TGI (NCI-H460 lung): 84 µM
GI50 (SF-539 CNS): 8.19 µM
TGI (SF-539 CNS): 70.9 µM
GI50 (MCF7 breast): 3.81 µM
TGI (MCF7 breast): > 100 µM
GI50 (M14 melanoma): 4.22 µM
TGI (M14 melanoma): 18.1 µM
GI50 (HS 578T breast): 3.71 µM
TGI (HS 578T breast): 82.3 µM
GI50 (OVCAR-3 ovarian): 4.63 µM
TGI (OVCAR-3 ovarian): 22.9 µM
GI50 (HCT-116 colon): 3.47 µM
TGI (HCT-116 colon): 14.9 µM
GI50 (ACHN renal): 9.31 µM
TGI (ACHN renal): > 100 µM
GI50 (UACC-257 melanoma): 39.3 µM
TGI (UACC-257 melanoma): > 100 µM
GI50 (UACC-62 melanoma): 3.84 µM
TGI (UACC-62 melanoma): 31.3 µM
GI50 (A549 NSCLC): 8.57 µM
TGI (A549 NSCLC): > 100 µM
GI50 (HCT-15 colon): 4.84 µM
TGI (HCT-15 colon): > 100 µM
GI50 (MDA-MB-231 breast): 11.4 µM
TGI (MDA-MB-231 breast): 44.9 µM
GI50 (SN12C renal): 12.7 µM
TGI (SN12C renal): 38.4 µM
GI50 (IGROV1 ovarian): 4.89 µM
TGI (IGROV1 ovarian): 21.7 µM
GI50 (SNB-19 CNS): 22.8 µM
TGI (SNB-19 CNS): > 100 µM
GI50 (MDA-MB-435): 2.26 µM
TGI (MDA-MB-435): 5.97 µM
GI50 (LOX IMVI melanoma): 3.06 µM
TGI (LOX IMVI melanoma): 12 µM
GI50 (MOLT-4 leukemia): 3.43 µM
TGI (MOLT-4 leukemia): > 100 µM
GI50 (HL-60(TB) leukemia): 3.32 µM
TGI (HL-60(TB) leukemia): 38.6 µM
GI50 (K-562 leukemia): 3.08 µM
TGI (K-562 leukemia): > 100 µM
GI50 (786-0 renal): 12.9 µM
TGI (786-0 renal): > 100 µM
GI50 (A498 renal): 2.96 µM
TGI (A498 renal): 90.3 µM
GI50 (SR leukemia): 2.92 µM
TGI (SR leukemia): 15.5 µM
GI50 (SK-MEL-5 melanoma): 5.5 µM
TGI (SK-MEL-5 melanoma): 19.6 µM
GI50 (SK-MEL-28 melanoma): 8.52 µM
TGI (SK-MEL-28 melanoma): > 100 µM
GI50 (NCI-H226 lung): 13 µM
TGI (NCI-H226 lung): 43.3 µM
GI50 (SK-OV-3 ovarian): 15.2 µM
TGI (SK-OV-3 ovarian): > 100 µM
GI50 (DU-145 prostate): 26.6 µM
TGI (DU-145 prostate): > 100 µM
GI50 (TK-10 renal): 26.5 µM
TGI (TK-10 renal): > 100 µM
GI50 (U251 CNS): 6.2 µM
TGI (U251 CNS): > 100 µM
GI50 (SF-268 CNS): 9.61 µM
TGI (SF-268 CNS): > 100 µM
GI50 (OVCAR-4 ovarian): 6.57 µM
TGI (OVCAR-4 ovarian): 79.8 µM
GI50 (UO-31 renal): 4.16 µM
TGI (UO-31 renal): 27.7 µM
GI50 (SF-295 CNS): 3.05 µM
TGI (SF-295 CNS): > 100 µM
GI50 (SNB-75 CNS): 5.03 µM
TGI (SNB-75 CNS): 75.3 µM
GI50 (RXF 393 renal): 5.96 µM
TGI (RXF 393 renal): 21.5 µM
GI50 (CAKI-1 renal): 5.24 µM
TGI (CAKI-1 renal): > 100 µM
GI50 (OVCAR-5 ovarian): 47 µM
TGI (OVCAR-5 ovarian): > 100 µM
GI50 (NCI-H23 lung): 6.15 µM
TGI (NCI-H23 lung): > 100 µM
GI50 (HT29 colon): 3.71 µM
TGI (HT29 colon): > 100 µM
GI50 (SW-620 colon): 3.7 µM
TGI (SW-620 colon): 19.2 µM
GI50 (MALME-3M melanoma): 4.16 µM
TGI (MALME-3M melanoma): 21.1 µM
GI50 (HCC-2998 colon): 9.97 µM
TGI (HCC-2998 colon): > 100 µM
GI50 (NCI-H522 lung): 2.15 µM
TGI (NCI-H522 lung): 10.1 µM
GI50 (KM12 colon): 4.19 µM
TGI (KM12 colon): > 100 µM
GI50 (T-47D breast): 17.5 µM
TGI (T-47D breast): > 100 µM
GI50 (EKVX NSCLC): 4.97 µM
TGI (EKVX NSCLC): > 100 µM
GI50 (SK-MEL-2 melanoma): 10.6 µM
TGI (SK-MEL-2 melanoma): > 100 µM
GI50 (OVCAR-8 ovarian): 15.9 µM
TGI (OVCAR-8 ovarian): > 100 µM
GI50 (RPMI-8226 leukemia): 7.11 µM
TGI (RPMI-8226 leukemia): > 100 µM
GI50 (COLO 205 colon): 8.03 µM
TGI (COLO 205 colon): 30.6 µM
GI50 (NCI/ADR-RES ovarian): 2.58 µM
TGI (NCI/ADR-RES ovarian): 8.96 µM
GI50 (HOP-92 NSCLC): 50 µM
TGI (HOP-92 NSCLC): > 100 µM
GI50 (CCRF-CEM leukemia): 3.54 µM
TGI (CCRF-CEM leukemia): > 100 µM
GI50 (PC-3 prostate): 7.12 µM
TGI (PC-3 prostate): > 100 µM

CC12CC(c3ccccc3O1)C(C(=O)Nc1ccc(Cl)cc1Cl)C(=O)N2 (centres undefined)
TGI (HOP-62 NSCLC): 48.4 µM
TGI (NCI-H460 lung): > 100 µM
TGI (SF-539 CNS): > 100 µM
TGI (MCF7 breast): > 100 µM
TGI (M14 melanoma): 31.9 µM
TGI (HS 578T breast): 47.7 µM
TGI (OVCAR-3 ovarian): > 100 µM
TGI (HCT-116 colon): > 100 µM
TGI (ACHN renal): 67.3 µM
TGI (UACC-257 melanoma): > 100 µM
TGI (UACC-62 melanoma): > 100 µM
TGI (A549 NSCLC): 56.8 µM
TGI (HCT-15 colon): > 100 µM
TGI (IGROV1 ovarian): 50.9 µM
TGI (SNB-19 CNS): > 100 µM
TGI (MDA-N): > 100 µM
TGI (MDA-MB-435): > 100 µM
TGI (LOX IMVI melanoma): 49.5 µM
TGI (BT-549 breast): > 100 µM
TGI (MOLT-4 leukemia): 54.5 µM
TGI (HL-60(TB) leukemia): 21.2 µM
TGI (K-562 leukemia): > 100 µM
TGI (786-0 renal): 43.8 µM
TGI (SK-MEL-5 melanoma): > 100 µM
TGI (SK-MEL-28 melanoma): > 100 µM
TGI (SK-OV-3 ovarian): > 100 µM
TGI (DU-145 prostate): > 100 µM
TGI (U251 CNS): 48.2 µM
TGI (SF-268 CNS): > 100 µM
TGI (OVCAR-4 ovarian): 39.6 µM
TGI (UO-31 renal): 37.7 µM
TGI (SF-295 CNS): > 100 µM
TGI (CAKI-1 renal): > 100 µM
TGI (OVCAR-5 ovarian): > 100 µM
TGI (NCI-H23 lung): > 100 µM
TGI (HT29 colon): > 100 µM
TGI (SW-620 colon): > 100 µM
TGI (MALME-3M melanoma): 89.8 µM
TGI (HCC-2998 colon): > 100 µM
TGI (NCI-H522 lung): > 100 µM
TGI (KM12 colon): > 100 µM
TGI (T-47D breast): 70.9 µM
TGI (EKVX NSCLC): 50.2 µM
TGI (SK-MEL-2 melanoma): > 100 µM
TGI (OVCAR-8 ovarian): 30.6 µM
TGI (RPMI-8226 leukemia): > 100 µM
TGI (COLO 205 colon): > 100 µM
TGI (NCI/ADR-RES ovarian): > 100 µM
TGI (CCRF-CEM leukemia): 30.1 µM
TGI (PC-3 prostate): > 100 µM
